In publication PMC10632401, “Cell-free biosynthesis combined with deep learning accelerates de novo-development of antimicrobial peptides” (Nature Communications, 2023):

Experiments:
Escherichia coli MG1655 = assay: Outer membrane vesicle (OMV) release after AMP treatment; type: cell-based; conditions: ¼ MIC, 90 min
Experimental: Escherichia coli MG1655 was grown on MacConkey agar (Carl Roth, Karlsruhe, Germany) plates overnight. For overnight culture, a single colony was used for inoculation of 2 mL LB media at 37 °C, 160 rpm (MaxQ 6000, Thermo Fisher Scientific, Karlsruhe, Germany). Bacterial culture was transferred to 10 mL fresh LB media and incubated (1 h, 37 °C, 160 rpm). The required amount of bacteria was treated with ¼ MIC of the AMPs #3, #5, #10, #13, #15, #16, and #27, left untreated for control or was treated with acetic acid and BSA as solvent control (90 min, 37 °C, 160 rpm). Samples were centrifuged (4,500 x g, 15 min, 4 °C; Multifuge X3R, Thermo Fisher Scientific), the supernatant was sterile filtered (0.22 µm) and afterwards concentrated by the factor of 20 using 100 kDa molecular weight cut-off filters (Merck KGaA, Darmstadt, Germany). To determine the number of released vesicles, samples were measured by nano-flow cytometry (nFCM) using a NanoAnalyzer (NanoFCM Co., Ltd, Nottingham, UK)[64].

E. coli = type: cell-based, Escherichia coli; conditions: daily passage from cells grown at half-MIC, n=3

| Compound | release of outer membrane vesicles (OMV) compared to untreated E. coli (Escherichia coli MG1655) | increase in MIC during 21 days of serial passage (E. coli) |
| --- | --- | --- |
| polymyxin B | only significantly different group |  |
| C[C@@H](O)[C@H]1C(=O)N2C(C(=O)O)=C(SCCN=CN)C[C@H]12 [imipenem] |  | up to 8 fold |
